Structures are written as SMILES. Structures can show the parent of a compound that is named as a salt.

The test system of this experiment is epithelial breast carcinoma cell line (MDAMB-435). Put plainly: Antiproliferative activity (growth inhibition, MTT), epithelial breast carcinoma cell line MDAMB-435. In kind it is cell-based. To be noted: Homo sapiens, MDA-MB-435, 120 h, 5 days post drug addition, 0.1% DMSO, read-out: IC50 (growth inhibition of MDAMB-435 cells). As for the experimental part:
The epithelial breast carcinoma cell line (MDAMB-435) was purchased from ATCC (American Type Cell Culture Collection) and was grown in culture medium as recommended by ATCC. For analysis of the effect of various compounds of formula I on the growth of these cells, the cells were plated at a concentration of 1500 cells/well in a 96 well tissue culture plate ("test plate"). The day after the cells were plated, the compounds to be analyzed were dissolved in 100% DMSO (dimethyl sulfoxide) to yield at 10 mM stock solution. Each compound was diluted in H2 O to 1 mM and was added to triplicate wells in the first row of a 96 well master plate containing medium to yield a final concentration of 40 μM. The compounds were then serially diluted in medium in the "master plate". The diluted compound(s) were then transferred to test plates containing cells. A row of vehicle "control cells" received DMSO. The final concentration of DMSO in each well was 0.1%. 5 days post drug addition, the plate was analyzed as described below.
MTT (3-(4-5 methyl thiazole-2-yl)-2,5-diphenyl tetrazolium bromide; thiazolyl blue) was added to each well to yield a final concentration of 1 mg/ml. The plate was then incubated at 37° C. for 21/2-3 hours. The MTT-containing medium was then removed and 50 μl of 100% ethanol was added to each well to dissolve the formazan. The absorbences were then read using an automated plate reader (Bio-tek microplate reader). IC50 s were calculated using the Reed and Munsch equation, see Am. J. Hygiene Vol. 27 pgs. 493-497,1938.
For orientation: IC50 means the midpoint of a concentration-inhibition curve. For `Cn1cc(C2=C(c3cn(C)c4cc([N+](=O)[O-])ccc34)C(=O)NC2=O)c2ccc(-c3cnc[nH]3)cc21` [Example 2f, 3-[6-(3H-Imidazol-4-yl)-1-methyl-1H-indol-3-yl]-4-(1-methyl-6-nitro-3-yl)pyrrole-2,5-dione hydrochloride], the IC50 was 20 nM.
Take `Cn1ccnc1-c1ccc2c(C3=C(c4cn(C)c5ccccc45)C(=O)NC3=O)cn(C)c2c1` [Example 4b, 3-(1-Methyl-1H-indol-3-yl)-4-[1-methyl-6-(1-methyl-1H-imidazol-2-yl)-1H-indol-3-yl]-pyrrole-2,5-dione]: the IC50 was 60 nM.
`Cn1cc(C2=C(c3c[nH]c4cc(N5CCOCC5)ccc34)C(=O)NC2=O)c2ccccc21` [Example 12o, 3-(1-Methyl-1H-indol-3-yl)-4-(6-morpholin-4-yl-1H-indol-3-yl)pyrrole-2,5-dione]: the IC50 stood at 37 nM.
To `Cn1cc(C2=C(c3cn(C)c4cc(C(F)(F)F)ccc34)C(=O)NC2=O)c2ccc(N3CCCC3)cc21` [Example 14h, 3-(1-Methyl-6-pyrrolidin-1-yl-1H-indol-3-yl)-4-(1-methyl-6-trifuloromethyl-1H-indol-3-yl)pyrrole-2,5-dione] belongs 80 nM; to `Cn1cc(C2=C(c3cn(C)c4cc(-c5ccsc5)ccc34)C(=O)NC2=O)c2ccccc21` [Example 5, 3-(1-Methyl-1H-indol-3-yl)-4-(1-methyl-6-thiophen-3-yl-1H-indol-3-yl)pyrrole-2,5-dione], 40 nM.
To `Cn1cc(C2=C(c3cn(C)c4cc(-c5ncc[nH]5)ccc34)C(=O)NC2=O)c2ccccc21` [Example 2e, 3-[6-(1H-Imidazol-2-yl)-1-methyl-1H-indol-3-yl]-4-(1-methyl-1H-indol-3-yl)pyrrole-2,5-dione] belongs 80 nM; to `Cn1cc(C2=C(c3c[nH]c4cc(N5CCCC5)ccc34)C(=O)NC2=O)c2ccc(F)cc21` [Example 12e, 3-(6-Fluoro-1-methyl-1H-indol-3-yl)-4-(6-pyrrolidin-1-yl-1H-indol-3-yl)pyrrole-2,5-dione], 3 nM; to `COCc1ccc2c(C3=C(c4cn(C)c5cc(N6CCOCC6)ccc45)C(=O)NC3=O)cn(C)c2c1` [Example 16, 3-(6-methoxymethyl-1-methyl-1H-indol-3-yl)-4-(1-methyl-6-morpholin-4-yl-1H-indol-3-yl)pyrrole-2,5-dione], 1180 nM.
Under `Cn1cc(C2=C(c3cn(C)c4cc([N+](=O)[O-])ccc34)C(=O)NC2=O)c2ccc(-c3ccns3)cc21` [Example 2m, 3-(6-Isothiazol-5-yl-1-methyl-1H-indol-3-yl)-4-(1-methyl-6-nitro-1H-indol-3-yl)pyrrole-2,5-dione] stands 10 nM; under `Cn1cc(C2=C(c3cn(C)c4cc([N+](=O)[O-])ccc34)C(=O)NC2=O)c2ccc(-c3cccs3)cc21` [Example 4d, 3-(1-Methyl-6-nitro-1H-indol-3-yl)-4-(1-methyl-6-thiophen-2-yl-1H-indol-3yl)-pyrrole-2,5-dione], 20 nM.
With `Cn1cc(C2=C(c3c[nH]c4ccccc34)C(=O)NC2=O)c2ccc(-c3ccco3)cc21` [Example 2i, 3-(6-Furan-2-yl-1-methyl-1H-indol-3-yl)-4-(1H-indol-3-yl)pyrrole-2,5-dione], the IC50 was 30 nM.
Turning to `Cn1cc(C2=C(c3cn(C)c4cc([N+](=O)[O-])ccc34)C(=O)NC2=O)c2ccc(-c3nccs3)cc21` [Example 4c, 3-(1-Methyl-6-nitro-1H-indol-3-yl)-4-(1-methyl-6-thiazol-2-yl-1H-indol-3-yl)pyrrole-2,5-dione], the IC50 was determined as 20 nM.
Take `Cn1cc(C2=C(c3cn(C)c4cc(-n5ccnc5)ccc34)C(=O)NC2=O)c2ccc(C#N)cc21` [Example 10b, 3-[4-(6-Imidazol-1-yl-1-methyl-1H-indol-3-yl)-2,5-dioxo-2,5-dihydro-1H-pyrrole-3-yl]-1-methyl-1H-indole-6-carbonitrile]: the IC50 is 30 nM.
Consider `Cn1cc(C2=C(c3cn(C)c4cc([N+](=O)[O-])ccc34)C(=O)NC2=O)c2ccc(N3CCOCC3)cc21` [Example 12a, 3-(1-Methyl-6-morpholin-4-yl-1H-indol-3-yl)-4-(1-methyl-6-nitro-1H-indol-3-yl)pyrrole-2,5-dione], for which the IC50 was below 10 nM.
Under `Cn1cc(C2=C(c3c[nH]c4cc(N5CCCC5)ccc34)C(=O)NC2=O)c2ccc(Cl)cc21` [Example 12f, 3-(6-Chloro-1-methyl-1H-indol-3-yl)-4-(6-pyrrolidin-1-yl-1H-indol-3-yl)pyrrole-2,5-dione] stands below 3 nM; under `COc1ccc2c(C3=C(c4cn(C)c5cc(-c6cncn6C)ccc45)C(=O)NC3=O)cn(C)c2c1` [Example 2b, 3-(6-Methoxy-1-methyl-1H-indol-3-yl)-4-[1-methyl-6-(3-methyl-3H-imidazol-4-yl)-1H-indol-3-yl]pyrrole-2,5-dione], 60 nM; under `CN1CCN(c2ccc3c(C4=C(c5cn(C)c6ccccc56)C(=O)NC4=O)cn(C)c3c2)CC1` [Example 12k, 3-(1-Methyl-1H-indol-3-yl)-4-[1-methyl-6-(4-methyl-piperazin-1-yl)-1H-indol-3-yl]pyrrole-2,5-dione], 3410 nM.
Turning to `Cn1cc(C2=C(c3cn(C)c4cc([N+](=O)[O-])ccc34)C(=O)NC2=O)c2ccc(-n3cccn3)cc21` [Example 8c, 3-(1-Methyl-6-nitro-1H-indol-3-yl)-4-(1-methyl-6-pyrazol-1-yl-1H-indol-3-yl)pyrrole-2,5-dione], the concentration for half-maximal inhibition (IC50) was 20 nM.
In the case of `Cn1cc(C2=C(c3c[nH]c4cc(N5CCOCC5)ccc34)C(=O)NC2=O)c2ccc(F)cc21` [Example 12n, 3-(6-Fluoro-1-methyl-1H-indol-3-yl)-4-(6-morpholin-4-yl-1H-indol-3-yl)-pyrrole-2,5-dione], the IC50 came to 12 nM.
Under `Cn1cc(C2=C(c3cn(C)c4cc(N5CCOCC5)ccc34)C(=O)NC2=O)c2ccc(Cl)cc21` [Example 14c, 3-(6-Chloro-1-methyl-1H-indol-3-yl)-4-(1-methyl-6-morpholin-4-yl-1H-indol-3-yl)pyrrole-2,5-dione] stands 2 nM; under `Cn1cc(C2=C(c3cn(C)c4cc(N5CCOCC5)ccc34)C(=O)NC2=O)c2ccc(Br)cc21` [Example 14d, 3-(6-Bromo-1-methyl-1H-indol-3-yl)-4-(1-methyl-6-morpholin-4-yl-1H-indol-3-yl)pyrrole-2,5-dione], 3 nM.
Turning to `Cn1nccc1-c1ccc2c(C3=C(c4cn(C)c5ccccc45)C(=O)NC3=O)cn(C)c2c1` [Example 2k, 3-(1-Methyl-1H-indol-3-yl)-4-[1-methyl-6-(2-methyl-2H-pyrazol-3-yl)-1H-indol-3-yl]pyrrole-2,5-dione], the IC50 came to 250 nM.
To `Cc1ccc2c(C3=C(c4cn(C)c5cc(N6CCOCC6)ccc45)C(=O)NC3=O)cn(C)c2c1` [Example 12b, 3(1,6-Dimethyl-1H-indol-3-yl)-4-(1-methyl-6-morpholin-4-yl-1H-indol-3-yl)pyrrole-2,5-dione] belongs below 10 nM.
As for `Cn1cc(C2=C(c3cn(C)c4cc([N+](=O)[O-])ccc34)C(=O)NC2=O)c2ccc(OCCn3ccnc3)cc21` [Example 17, 3-[6-(2-Imidazol-1-yl-ethoxy)-1-methyl-1H-indol-3-yl]-4-(1-methyl-6-nitro-1H-indol-3-yl)pyrrole-2,5-dione], the IC50 came out at 70 nM.
